Results from paper PMC10272112 (Nature Communications, 2023).
“And” between values parts separate entries of the source, which are not always exact repeats. Identical values can stand only once. Values belong to the compound of their own block, whether it stands above or below them.

Assays:
HDAC6 = molecular target: T1, HDAC6 (Homo sapiens, UniProt Q9UBN7); experiment: HDAC-Glo assay; assay type: biochemical; design: purchased BPS Bioscience 50006; conditions: read-out: log EC50 from dose-dependent HDAC inhibition curves (converted)
T1 sequence (Q9UBN7 1-1215): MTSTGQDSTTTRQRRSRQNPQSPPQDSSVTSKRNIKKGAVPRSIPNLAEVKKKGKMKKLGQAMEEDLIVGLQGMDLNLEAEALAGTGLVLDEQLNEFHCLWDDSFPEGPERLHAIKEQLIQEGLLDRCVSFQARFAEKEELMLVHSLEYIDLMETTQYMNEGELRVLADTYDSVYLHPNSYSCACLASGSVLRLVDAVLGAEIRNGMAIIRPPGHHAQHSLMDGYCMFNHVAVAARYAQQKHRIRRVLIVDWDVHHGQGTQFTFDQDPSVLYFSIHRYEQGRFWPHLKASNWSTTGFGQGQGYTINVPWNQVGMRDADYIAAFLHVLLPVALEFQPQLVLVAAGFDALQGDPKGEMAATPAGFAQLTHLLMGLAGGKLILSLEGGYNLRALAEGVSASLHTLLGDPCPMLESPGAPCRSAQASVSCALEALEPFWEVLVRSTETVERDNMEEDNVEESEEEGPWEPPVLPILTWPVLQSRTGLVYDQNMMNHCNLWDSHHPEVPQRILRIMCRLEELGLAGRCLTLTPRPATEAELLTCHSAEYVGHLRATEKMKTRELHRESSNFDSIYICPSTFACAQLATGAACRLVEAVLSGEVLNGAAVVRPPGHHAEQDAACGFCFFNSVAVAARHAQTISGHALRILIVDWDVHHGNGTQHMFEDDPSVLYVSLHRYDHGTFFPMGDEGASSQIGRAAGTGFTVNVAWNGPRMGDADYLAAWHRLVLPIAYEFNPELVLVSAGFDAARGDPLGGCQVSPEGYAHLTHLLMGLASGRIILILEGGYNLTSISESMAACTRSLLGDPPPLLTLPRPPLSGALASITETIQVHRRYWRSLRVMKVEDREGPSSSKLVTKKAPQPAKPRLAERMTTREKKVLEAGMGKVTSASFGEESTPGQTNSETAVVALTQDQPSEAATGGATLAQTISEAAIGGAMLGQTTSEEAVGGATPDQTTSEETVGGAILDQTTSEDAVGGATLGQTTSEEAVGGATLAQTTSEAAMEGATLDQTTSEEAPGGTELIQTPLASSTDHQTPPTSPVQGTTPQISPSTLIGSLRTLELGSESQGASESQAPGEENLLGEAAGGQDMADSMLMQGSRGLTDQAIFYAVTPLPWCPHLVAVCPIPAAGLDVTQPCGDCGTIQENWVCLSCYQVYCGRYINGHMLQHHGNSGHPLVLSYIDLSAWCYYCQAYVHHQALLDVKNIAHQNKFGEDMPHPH
Protocol: (§1) To validate the inhibition of HDACs by LA and LM and elaborate on the structure-activity relationship (SAR) of enantiomers as well as oxidized versus reduced forms of the molecules, we performed enzyme activity assays for recombinant HDAC1,2,3,6,8 as well as FRET-based binding assay for recombinant HDAC10.
(§2) The experiments were performed according to ref. [48]. […] Drug dosing was performed with a D300e Digital Dispenser (Tecan). HDACs (7 ng/mL for HDAC1, 25 ng/mL for HDAC2, 200 ng/mL for HDAC3/Ncor2 complex, 100 ng/mL for HDAC6, 200 ng/mL for HDAC8) and inhibitors were incubated together at room temperature (RT) for 30 min. After the addition of the HDAC-Glo™ I/II reagent, plates were shaken (800 rpm orbital shaker, 30 s), centrifuged (300 g, 1 min), and incubated at RT for 30 min. Luminescence was detected with a CLARIOstar (BMG Labtech) plate reader.

HDAC3/NcoR2 complex = molecular target: T2, HDAC3/NcoR2 complex (Homo sapiens, UniProt O15379); experiment: HDAC-Glo assay; assay type: biochemical; conditions: read-out: log EC50 from dose-dependent HDAC inhibition curves (converted)
T2 construct: purchased BPS Bioscience 50003
Protocol: as §1, §2

HDAC2 = HDAC2 (Homo sapiens, UniProt Q92769); experiment: HDAC-Glo assay; assay type: biochemical; design: purchased BPS Bioscience 50002; conditions: read-out: log EC50 from dose-dependent HDAC inhibition curves (converted)
Protocol: as §1, §2

HDAC8 = molecular target: T3, HDAC8 (Homo sapiens, UniProt Q9BY41); experiment: HDAC-Glo assay; assay type: biochemical; design: purchased BPS Bioscience 50008; conditions: read-out: log EC50 from dose-dependent HDAC inhibition curves (converted)
T3 sequence (Q9BY41 1-377): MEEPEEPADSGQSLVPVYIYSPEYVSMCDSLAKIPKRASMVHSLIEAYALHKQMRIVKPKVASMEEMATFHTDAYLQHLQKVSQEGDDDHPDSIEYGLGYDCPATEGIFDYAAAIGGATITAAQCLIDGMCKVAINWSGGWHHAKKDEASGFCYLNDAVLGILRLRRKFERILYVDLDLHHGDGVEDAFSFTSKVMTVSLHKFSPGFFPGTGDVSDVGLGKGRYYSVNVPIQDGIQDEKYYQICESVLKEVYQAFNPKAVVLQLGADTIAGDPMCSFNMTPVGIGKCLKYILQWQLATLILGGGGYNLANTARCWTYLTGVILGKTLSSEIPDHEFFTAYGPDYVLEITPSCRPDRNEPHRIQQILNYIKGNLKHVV
Protocol: as §1, §2

HDAC1 = HDAC1 (Homo sapiens, UniProt Q13547); experiment: HDAC-Glo assay; assay type: biochemical; design: purchased BPS Bioscience 50051; conditions: for raw luminescence signal, HDAC1 inhibition: 0.5 M TCEP
Protocol: as §1, §2

DDX3X AcK118 [1] = experiment: DDX3X acetylation detection by western blot, CBP-HA transfected HEK293T; assay type: cell-based; conditions: 5 µM
Protocol: (§3) 0.2 × 10^6 HEK293T (ATCC: CRL-3216) cells were transfected with pcDNA 3.1-HA CBP plasmids (1 μg/well for the 6-well plate) by FuGENE. After 2 days, cells were treated with ACY-738, lipoic acid, and lipoamide for 7 h, then were washed by ice-cold PBS and lysed in Triton lysis buffer (50 mM Tris, pH 8.0, 150 mM NaCl, 1 mM EDTA, 0.1% TritonX-100 and complete EDTA-free protease inhibitors (Roche)) for analysis. To detect protein acetylation, 0.2 μM Trichostatin A and 5 mM nicotinamide were added to PBS for washing, and 10 μM trichostatin A, 10 mM nicotinamide, and 50 mM sodium butyrate were added to Triton lysis buffer.

α-Tubulin AcK40 = experiment: α-tubulin acetylation detection by western blot, CBP-HA transfected HEK293T; assay type: cell-based; conditions: HEK293T, ACY-738 5 µM
Protocol: as §3

A549 cells [2] = experiment: CellRox deep red assay for ROS quantification (with or without arsenite); assay type: cell-based; conditions: sheet 4d
A549 cells [3] = experiment: CellRox deep red assay for tBuOOH-induced ROS; conditions: NAC 500 ?M; sheet 4c; DMSO mean = 1
[4] = test system: HDACs (HDAC1, HDAC2, HDAC6); design: method as in earlier work; conditions: ref Bantscheff et al., Nat Biotech, 2011; Lechner et al., Nat Chem Bio, 2023; read-out: EC50 in comparable chemoproteomic competition assays; cited from earlier work
DDX3X AcK118 [5] = conditions: 10 µM; cited from earlier work

HDAC1, sequence (Q13547 whole entry): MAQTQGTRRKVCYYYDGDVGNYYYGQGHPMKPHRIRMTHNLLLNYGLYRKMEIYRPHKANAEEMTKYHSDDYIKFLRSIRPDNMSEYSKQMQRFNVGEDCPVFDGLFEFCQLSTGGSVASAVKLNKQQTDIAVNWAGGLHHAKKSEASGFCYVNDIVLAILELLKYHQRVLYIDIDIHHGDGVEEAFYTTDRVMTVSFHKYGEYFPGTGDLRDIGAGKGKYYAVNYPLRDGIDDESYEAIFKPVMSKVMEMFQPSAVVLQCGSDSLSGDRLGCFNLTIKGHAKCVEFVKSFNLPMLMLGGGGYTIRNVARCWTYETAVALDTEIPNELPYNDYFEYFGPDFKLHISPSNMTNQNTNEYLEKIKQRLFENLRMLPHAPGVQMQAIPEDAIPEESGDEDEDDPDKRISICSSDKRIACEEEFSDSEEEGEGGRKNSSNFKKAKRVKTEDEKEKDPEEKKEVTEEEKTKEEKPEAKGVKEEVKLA
HDAC2, sequence (Q92769 whole entry): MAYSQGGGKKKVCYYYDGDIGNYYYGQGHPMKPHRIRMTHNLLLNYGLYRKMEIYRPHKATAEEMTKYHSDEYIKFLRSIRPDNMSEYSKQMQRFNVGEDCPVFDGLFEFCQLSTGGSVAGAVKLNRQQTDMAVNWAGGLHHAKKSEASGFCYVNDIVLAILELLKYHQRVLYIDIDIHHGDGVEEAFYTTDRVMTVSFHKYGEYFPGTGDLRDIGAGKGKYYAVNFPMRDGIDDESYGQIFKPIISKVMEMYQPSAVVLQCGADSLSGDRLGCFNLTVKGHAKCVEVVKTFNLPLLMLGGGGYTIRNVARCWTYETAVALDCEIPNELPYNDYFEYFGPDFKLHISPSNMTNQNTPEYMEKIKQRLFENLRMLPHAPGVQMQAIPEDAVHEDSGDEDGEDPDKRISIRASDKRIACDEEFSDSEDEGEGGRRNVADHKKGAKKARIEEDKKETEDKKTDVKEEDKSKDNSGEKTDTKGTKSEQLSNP
T2 sequence (O15379 whole entry): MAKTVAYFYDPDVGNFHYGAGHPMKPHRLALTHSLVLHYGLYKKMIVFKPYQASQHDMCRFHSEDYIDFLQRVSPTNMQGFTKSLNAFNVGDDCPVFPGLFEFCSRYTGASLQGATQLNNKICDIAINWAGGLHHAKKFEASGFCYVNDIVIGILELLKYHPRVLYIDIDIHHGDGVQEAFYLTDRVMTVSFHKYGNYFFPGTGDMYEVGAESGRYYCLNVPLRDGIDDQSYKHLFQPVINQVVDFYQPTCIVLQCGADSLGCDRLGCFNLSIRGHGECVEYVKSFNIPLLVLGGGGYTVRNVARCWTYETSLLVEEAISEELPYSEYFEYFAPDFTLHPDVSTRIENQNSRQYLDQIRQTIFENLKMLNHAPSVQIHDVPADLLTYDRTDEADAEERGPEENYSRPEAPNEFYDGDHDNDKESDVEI
T2 sequence (Q9Y618 395-489 partner limits assumed): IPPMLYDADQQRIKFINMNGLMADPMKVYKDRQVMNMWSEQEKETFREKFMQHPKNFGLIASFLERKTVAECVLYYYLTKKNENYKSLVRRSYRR

EC50 (HDAC6): 2.42 µM | EC50 (HDAC3/NcoR2 complex): 47.5 µM | EC50 (HDAC2): 33.4 µM | EC50 (HDAC8): 20.2 µM | raw luminescence signal, HDAC1 inhibition (HDAC1; log10 M -3.30103, 3 technical replicates): 10948 and 11336 and 10633 | raw luminescence signal, HDAC1 inhibition (HDAC1; log10 M -3.82945, 3 technical replicates): 35128 and 33959 and 34884 | raw luminescence signal, HDAC1 inhibition (HDAC1; log10 M -4.35788, 3 technical replicates): 100059 and 96489 and 102534 | raw luminescence signal, HDAC1 inhibition (HDAC1; log10 M -4.88629, 3 technical replicates): 200567 and 200318 and 195985 | raw luminescence signal, HDAC1 inhibition (HDAC1; log10 M -5.41477, 3 technical replicates): 315045 and 314071 and 307544 | raw luminescence signal, HDAC1 inhibition (HDAC1; log10 M -5.94309, 3 technical replicates): 353287 and 345284 and 342473 | raw luminescence signal, HDAC1 inhibition (HDAC1; log10 M -6.47756, 3 technical replicates): 372512 and 378178 and 378301 | raw luminescence signal, HDAC1 inhibition (HDAC1; log10 M -6.87615, 3 technical replicates): 385390 and 377410 and 356944 | EC50 (HDAC1; read-out: log EC50 from dose-dependent HDAC inhibition curves (converted)): 15.1 µM
Compound: O=C(O)CCCCC(S)CCS (racemic) [RS LA reduced, (R/S)-dihydrolipoic acid]

Compound: O=C(NO)c1cnc(NC2(c3ccccc3)CC2)nc1 [ACY-738]
DDX3X AcK118 acetylation level relative to control (DDX3X AcK118 [1]): 3.0 fold | DDX3X AcK118 acetylation level relative to control (DDX3X AcK118 [1]; listed as ACY738): 3 fold | α-Tubulin AcK40 acetylation level relative to control (α-Tubulin AcK40): 6.5 fold

Compound: CC(=O)N[C@@H](CS)C(=O)O [NAC, N-acetyl-cysteine]
ROS (CellRox), relative to DMSO -Ars., Mean (A549 cells [2]; NAC +Ars): 0.6662 | ROS (CellRox), relative to DMSO -Ars., replicate values (A549 cells [2]; NAC +Ars): 0.6371 and 0.672 and 0.6896 | tBuOOH-induced ROS (CellRox), relative to DMSO, Mean (A549 cells [3]): 0.6999 | tBuOOH-induced ROS (CellRox), relative to DMSO, replicate values (A549 cells [3]): 0.7684 and 0.7006 and 0.6306

Compound: O=C(O)CCCc1ccccc1 [Phenylbutyric acid]
EC50 [4]: 300 to 500 µM

Compound: CC(C)(C)OO [TBHP]
ROS (CellRox), relative to DMSO -Ars., Mean (A549 cells [2]; TBHP -Ars): 8.0156 | ROS (CellRox), relative to DMSO -Ars., replicate values (A549 cells [2]; TBHP -Ars): 8.277 and 8.688 and 7.082

Compound: CN1CCc2c(c3ccccc3n2Cc2ccc(C(=O)NO)cc2)C1 [Tubastatin A]
DDX3X hyperacetylation (DDX3X AcK118 [5]): 2.6 fold

Compound: CCCC(CCC)C(=O)O [Valproic acid]
EC50 [4]: 300 to 500 µM
